Literature values, collected in US20170326147A1, “INHIBITING BLOOD PRESSURE DROP IN THE TREATMENT OF ERECTILE DYSFUNCTION” (FORMUREX, INC., priority 2014, published 2017).
Structures can show the parent of a compound that is named as a salt.

Columns and labels:
plasma proteins = details: independent of total drug concentration

CCCc1nn(C)c2c(=O)[nH]c(-c3cc(S(=O)(=O)N4CCNCC4)ccc3OCC)nc12 [N-desmethyl metabolite, N-desmethyl sildenafil]
bound to plasma proteins (plasma proteins): approximately 96%

CCCc1nn(C)c2c(=O)[nH]c(-c3cc(S(=O)(=O)N4CCN(C)CC4)ccc3OCC)nc12 [sildenafil citrate]
Tmax average, fasting subjects (fasting): about 1 hr | delay of mean Tmax by food in the stomach (fed): about 1.1 hr | bioavailability (mean absolute), oral administration (oral, absorption through the digestive tract): about 40% | bound to plasma proteins (plasma proteins): approximately 96%
